The text below walks through data of US11000033B2, “Ketone or oxime compound, and herbicide” (NISSAN CHEMICAL CORPORATION, priority 2014, dated 2021).

What all share (format): in vivo
Common to all, as to settings: 320 g/ha, 3 weeks after application

The subject of one data set is Stellaria media. Kind of data set: Test Example 5: herbicidal effect by foliage application, plastic box (symbol P). An excerpt:
(§1) Herbicidal Effect Test by Foliage Application
(§2) Sterilized diluvial soil was placed in a plastic box having a length of 21 cm, a width of 13 cm, and a depth of 7 cm. Each of the seeds of Digitaria ciliaris, Setaria viridis, Echinochloa crus-galli var. crus-galli, Avena fatua, Alopecurus myosuroides, Lolium multiflorum Lam., Apera spica-venti, Abutilon theophrasti, Amaranthus retroflexus, Chenopodium album, Stellaria media, Galium spurium, Veronica persica, corn, soybean, rice plant, wheat, beet, and rapeseed was sowed in a spot-like manner and was covered with the soil of a thickness of about 1.5 cm. Thereafter, the plants were grown in the greenhouse of 25° C. to 30° C. After the plants were grown for 14 days, the emulsion agent of the compound of the present invention prepared in accordance with Formulation Example 2 was diluted with water so as to be a predetermined herbicide amount and the diluted emulsion agent was uniformly applied to a foliage part with a small-size spray. 3 weeks later from the herbicide application, the effect to each plant was investigated in accordance with the criteria of Test Example 1.

For the next data set, the system named is Lolium multiflorum Lam. Briefly: Test Example 5: herbicidal effect by foliage application, plastic box (symbol K).
Description: as §1, §2

The next data set concerns corn. Kind of data set: Test Example 5: effect on crop by foliage application, plastic box (symbol c).
Description: as §1
(§3) Sterilized diluvial soil was placed in a plastic box having a length of 21 cm, a width of 13 cm, and a depth of 7 cm. Each of the seeds of Digitaria ciliaris, Setaria viridis, Echinochloa crus-galli var. crus-galli, Avena fatua, Alopecurus myosuroides, Lolium multiflorum Lam., Apera spica-venti, Abutilon theophrasti, Amaranthus retroflexus, Chenopodium album, Stellaria media, Galium spurium, Veronica persica, corn, soybean, rice plant, wheat, beet, and rapeseed was sowed in a spot-like manner and was covered with the soil of a thickness of about 1.5 cm. Thereafter, the plants were grown in the greenhouse of 25° C. to 30° C.

Another data set deals with Apera spica-venti. Kind of data set: Test Example 5: herbicidal effect by foliage application, plastic box (symbol L).
Description: as §1, §2

The next data set has as its system Setaria viridis. Kind of data set: Test Example 5: herbicidal effect by foliage application, plastic box (symbol G).
Description: as §1, §2

The test system of a further data set is Alopecurus myosuroides. Kind of data set: Test Example 5: herbicidal effect by foliage application, plastic box (symbol J).
Description: as §1, §2

The next data set has as its system Galium spurium. Kind of data set: Test Example 5: herbicidal effect by foliage application, plastic box (symbol Q).
Description: as §1, §2

The test system of a further data set is Veronica persica. Kind of data set: Test Example 5: herbicidal effect by foliage application, plastic box (symbol R).
Description: as §1, §2

The subject of a further data set is Avena fatua. Briefly: Test Example 5: herbicidal effect by foliage application, plastic box (symbol I).
Description: as §1, §2

Data set [1] deals with Echinochloa crus-galli var. crus-galli. Kind of data set: Test Example 5: herbicidal effect by foliage application, plastic box (symbol H).
Description: as §1, §2

The next data set relates to Amaranthus retroflexus. Briefly: Test Example 5: herbicidal effect by foliage application, plastic box (symbol N).
Description: as §1, §2

The test system of the next data set is beet. Briefly: Test Example 5: effect on crop by foliage application, plastic box (symbol f).
Description: as §1, §3

The next data set deals with Abutilon theophrasti. Briefly: Test Example 5: herbicidal effect by foliage application, plastic box (symbol M).
Description: as §1, §2

A further data set relates to rice plant. Kind of data set: Test Example 5: effect on crop by foliage application, plastic box (symbol b).
Description: as §1, §3

For another data set, the system named is Chenopodium album. Briefly: Test Example 5: herbicidal effect by foliage application, plastic box (symbol O).
Description: as §1, §2

Another data set has as its system wheat. Briefly: Test Example 5: effect on crop by foliage application, plastic box (symbol e).
Description: as §1, §3

The test system of the next data set is Digitaria ciliaris. Kind of data set: Test Example 5: herbicidal effect by foliage application, plastic box (symbol F).
Description: as §1, §2

Another data set relates to rapeseed. Briefly: Test Example 5: effect on crop by foliage application, plastic box (symbol g).
Description: as §1, §3

In the next data set the test system is soybean. Kind of data set: Test Example 5: effect on crop by foliage application, plastic box (symbol d).
Description: as §1, §3

On to `CON=C(C)CC1CC(OC(=O)N(c2ccccc2)C(C)C)=C(c2c(C)cc(C)cc2C)C1=O` (stereo not drawn) [1-127], for which the “P: Stellaria media, herbicidal effect (criteria 0-5)” value in the data set on Stellaria media is on record as 0 (Herbicidal ratio of 5% or lower (almost no effect)). The “K: Lolium multiflorum Lam., herbicidal effect (criteria 0-5)” value in the data set on Lolium multiflorum Lam. is 1 (Herbicidal ratio of 5% or higher and lower than 20%). In addition, the “c: corn, effect on crop (criteria 0-5)” value in the data set on corn is reported as 0 (Herbicidal ratio of 5% or lower (almost no effect)). Besides, in the data set with Apera spica-venti, the “L: Apera spica-venti, herbicidal effect (criteria 0-5)” value is reported as 0 (Herbicidal ratio of 5% or lower (almost no effect)). Besides, the “G: Setaria viridis, herbicidal effect (criteria 0-5)” value in the data set with Setaria viridis is recorded as 0 (Herbicidal ratio of 5% or lower (almost no effect)). For the same compound, the “J: Alopecurus myosuroides, herbicidal effect (criteria 0-5)” value in the data set with Alopecurus myosuroides is 1 (Herbicidal ratio of 5% or higher and lower than 20%). Moreover, the “Q: Galium spurium, herbicidal effect (criteria 0-5)” value in the data set with Galium spurium is 0 (Herbicidal ratio of 5% or lower (almost no effect)). In addition, the “R: Veronica persica, herbicidal effect (criteria 0-5)” value with Veronica persica is 0 (Herbicidal ratio of 5% or lower (almost no effect)). The “I: Avena fatua, herbicidal effect (criteria 0-5)” value in the data set on Avena fatua is listed as 0 (Herbicidal ratio of 5% or lower (almost no effect)). For the same compound, the “H: Echinochloa crus-galli var. crus-galli, herbicidal effect (criteria 0-5)” value in [1] is 0 (Herbicidal ratio of 5% or lower (almost no effect)). In addition, the “N: Amaranthus retroflexus, herbicidal effect (criteria 0-5)” value in the data set on Amaranthus retroflexus is recorded as 0 (Herbicidal ratio of 5% or lower (almost no effect)). In the data set on beet, the “f: beet, effect on crop (criteria 0-5)” value was 0 (Herbicidal ratio of 5% or lower (almost no effect)). In addition, the “M: Abutilon theophrasti, herbicidal effect (criteria 0-5)” value with Abutilon theophrasti is 0 (Herbicidal ratio of 5% or lower (almost no effect)). In the data set on rice plant, the “b: directly sowed rice plant, effect on crop (criteria 0-5)” value is 0 (Herbicidal ratio of 5% or lower (almost no effect)). Further, in the data set with Chenopodium album, the “O: Chenopodium album, herbicidal effect (criteria 0-5)” value is 0 (Herbicidal ratio of 5% or lower (almost no effect)). In the data set with wheat, the “e: wheat, effect on crop (criteria 0-5)” value is 0 (Herbicidal ratio of 5% or lower (almost no effect)). For the same compound, the “F: Digitaria ciliaris, herbicidal effect (criteria 0-5)” value in the data set on Digitaria ciliaris is recorded as 0 (Herbicidal ratio of 5% or lower (almost no effect)). Moreover, in the data set with rapeseed, the “g: rapeseed, effect on crop (criteria 0-5)” value is listed as 0 (Herbicidal ratio of 5% or lower (almost no effect)). Moreover, in the data set with soybean, the “d: soybean, effect on crop (criteria 0-5)” value is given as 0 (Herbicidal ratio of 5% or lower (almost no effect)).

Take `CON=C(C)CC1CC(OC)=C(c2c(C)cc(-c3ccc(SC)cc3)cc2C)C1=O` (mixture of isomers) [6-021]: the “P: Stellaria media, herbicidal effect grade” value with Stellaria media is reported as 0 (Herbicidal ratio of 5% or lower (almost no effect)). Further, the “K: Lolium multiflorum Lam., herbicidal effect grade” value with Lolium multiflorum Lam. is recorded as 5 (Herbicidal ratio of 90% or more (almost completely withered)). In the data set on corn, the “c: corn, effect on crop grade” value is reported as 0 (Herbicidal ratio of 5% or lower (almost no effect)). For the same compound, the “G: Setaria viridis, herbicidal effect grade” value in the data set with Setaria viridis is 3 (Herbicidal ratio of 40% or higher and lower than 70%). Besides, the “J: Alopecurus myosuroides, herbicidal effect grade” value in the data set with Alopecurus myosuroides is 3 (Herbicidal ratio of 40% or higher and lower than 70%). In addition, the “Q: Galium spurium, herbicidal effect grade” value in the data set on Galium spurium is recorded as 0 (Herbicidal ratio of 5% or lower (almost no effect)). Moreover, in the data set with Veronica persica, the “R: Veronica persica, herbicidal effect grade” value was 0 (Herbicidal ratio of 5% or lower (almost no effect)). Moreover, the “I: Avena fatua, herbicidal effect grade” value in the data set on Avena fatua was 1 (Herbicidal ratio of 5% or higher and lower than 20%). For the same compound, in the data set with Amaranthus retroflexus, the “N: Amaranthus retroflexus, herbicidal effect grade” value is recorded as 0 (Herbicidal ratio of 5% or lower (almost no effect)). For the same compound, the “f: beet, effect on crop grade” value in the data set with beet is recorded as 0 (Herbicidal ratio of 5% or lower (almost no effect)). In the data set with Abutilon theophrasti, the “M: Abutilon theophrasti, herbicidal effect grade” value was 0 (Herbicidal ratio of 5% or lower (almost no effect)). Also, the “b: directly sowed rice plant, effect on crop grade” value in the data set with rice plant is 0 (Herbicidal ratio of 5% or lower (almost no effect)). In addition, in the data set with Chenopodium album, the “O: Chenopodium album, herbicidal effect grade” value is given as 0 (Herbicidal ratio of 5% or lower (almost no effect)). Further, the “e: wheat, effect on crop grade” value in the data set with wheat is 0 (Herbicidal ratio of 5% or lower (almost no effect)). In addition, in the data set on Digitaria ciliaris, the “F: Digitaria ciliaris, herbicidal effect grade” value is 0 (Herbicidal ratio of 5% or lower (almost no effect)). In addition, the “g: rapeseed, effect on crop grade” value in the data set with rapeseed is 3 (Herbicidal ratio of 40% or higher and lower than 70%). The “d: soybean, effect on crop grade” value with soybean is 0 (Herbicidal ratio of 5% or lower (almost no effect)).
